Test results taken from publication PMC8776995 (Frontiers in Chemistry, 2022).
Several values for one entry are separate records, joined by “and”; a condition that tells them apart may be missing. Equal entries are not always repeated. Where two headings read alike, the source gives them in different places.

Tests used:
H460 cells = test: Flow cytometry detection for cell cycle, H460; type: cell-based, human
Description: To investigate the effects of compounds e4 and e12 on various phases of the cell cycle, PC-9 cells were treated with compound e4 or e12 of various concentrations for 24 h, and H460 cells were treated with compound e4 or e12 of various concentrations for 12 h.
PC-9 or H460 (2 × 10^5–3 × 10^5/well) cells were seeded in six-well plates for 24 h, and then treated with 0.1% DMSO (as control), various concentrations of either compound e4 or e12 for 24 h (PC-9) or 12 h (H460), respectively. The treated cells were harvested, washed with PBS, and then stained using the cell-cycle staining kit according to the manufacturer’s manual. The distribution of cell-cycle phases with different DNA contents was determined by flow cytometry (BD LSRFortessa™ Flow Cytometer) and analyzed using ModFit LT software.

wild-type EGFR = wild-type EGFR (Homo sapiens, UniProt P00533); test: EGFR kinase assay (ELISA); details: for A450: raw ELISA absorbance
Sequence of wild-type EGFR (P00533 25-1210): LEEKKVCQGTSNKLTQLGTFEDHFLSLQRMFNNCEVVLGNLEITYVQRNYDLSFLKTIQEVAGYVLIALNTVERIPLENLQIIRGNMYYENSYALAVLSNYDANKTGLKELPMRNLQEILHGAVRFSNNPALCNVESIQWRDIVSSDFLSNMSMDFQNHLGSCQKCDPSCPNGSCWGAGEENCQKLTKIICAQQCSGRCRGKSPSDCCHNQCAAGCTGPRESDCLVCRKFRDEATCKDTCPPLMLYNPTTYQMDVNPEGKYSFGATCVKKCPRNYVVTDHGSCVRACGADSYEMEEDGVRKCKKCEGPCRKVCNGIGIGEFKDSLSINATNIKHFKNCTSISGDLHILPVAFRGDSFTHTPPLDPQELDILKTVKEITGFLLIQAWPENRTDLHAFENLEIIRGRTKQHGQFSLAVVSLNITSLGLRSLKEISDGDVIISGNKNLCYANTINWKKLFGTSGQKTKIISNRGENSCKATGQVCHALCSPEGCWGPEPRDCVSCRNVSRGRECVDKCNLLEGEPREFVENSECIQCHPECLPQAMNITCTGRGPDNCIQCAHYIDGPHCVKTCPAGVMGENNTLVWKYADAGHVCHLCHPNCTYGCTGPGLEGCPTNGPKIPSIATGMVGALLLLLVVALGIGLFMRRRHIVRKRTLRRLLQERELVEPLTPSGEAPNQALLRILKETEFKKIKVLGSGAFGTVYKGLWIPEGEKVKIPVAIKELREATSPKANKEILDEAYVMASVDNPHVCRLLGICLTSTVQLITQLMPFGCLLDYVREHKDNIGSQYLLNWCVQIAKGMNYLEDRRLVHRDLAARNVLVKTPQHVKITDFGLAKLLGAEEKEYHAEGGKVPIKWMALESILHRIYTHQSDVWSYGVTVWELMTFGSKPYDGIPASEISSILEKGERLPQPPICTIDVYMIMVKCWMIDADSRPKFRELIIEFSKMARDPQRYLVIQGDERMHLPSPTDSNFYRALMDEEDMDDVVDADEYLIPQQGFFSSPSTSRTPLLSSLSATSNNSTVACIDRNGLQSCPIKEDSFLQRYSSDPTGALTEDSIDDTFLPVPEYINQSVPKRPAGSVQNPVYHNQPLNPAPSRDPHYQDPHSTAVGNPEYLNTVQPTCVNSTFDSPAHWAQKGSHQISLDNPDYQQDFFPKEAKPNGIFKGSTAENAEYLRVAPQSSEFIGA
Description: The kinase enzyme of EGFR was purchased from Carna Bioscience (Kobe, Japan). A total of 10 ng/ml anti phosphotyrosine (PY713) antibody (abcam, Cambridge Science Park, United Kingdom) was precoated in 96-well ELISA plates. […] Then, a total of 3 μmol/L ATP was added and the reaction was continued for 2 h. […] After incubation, the wells were washed with PBS and then incubated with horseradish peroxidase (HRP)-conjugated streptavidin. The wells were visualized using 3,3′,5,5′-tetramethylbenzidine (TMB), and chromogenic reaction was ended with 2 mol/L H2SO4, the absorbance was read with a multimode plate reader (PerkinElmer, United States) at 450 nm.

[1] = test system: EGFR phosphorylation (Tyr1068) in PC-9 cells; test: Western blot, p-EGFR/EGFR in PC-9; details: for p-EGFR/EGFR: band density ratio; for p-EGFR/EGFR relative to DMSO: ratio normalised to DMSO = 1
Description: We also performed western blot analysis to evaluate the impact of e4 and e12 on EGFR signaling in PC-9 and H460 cells.
H460 cells were seeded in six-well plates with serum-free medium overnight, and then treated complete medium containing 0.1% DMSO, various concentrations (0.1, 1 and 10 μM) of either compound e4 or e12 for 2 h, respectively. […] Then the H460 cells were treated with complete medium containing EGF (10 ng/ml) for 5 min. Then the cells were harvested and washed with PBS, centrifuged, resuspended in 100–200 μl of RIPA lysis buffer containing Protease and Phosphatase Inhibitor Cocktail (1X), and then centrifuged for 5 min at 12,000 rpm at 4°C. The supernatant was used for protein analysis. […] Then the membrane was washed 5 min (X3) and incubated at 1:3,000 dilution of anti-rabbit secondary antibodies or 1:1,000 dilution of anti-mouse secondary antibodies for 1 h at RT. After washing with TBST 5 min (X3), protein bands were developed by chemiluminescence. The protein levels were quantified by the gray values of the bands in the resulting images by ImageJ, and the control group was used as the standard. […] The PC-9 cells were harvested and analyzed as above.

H1975 cells = test: CCK-8 antiproliferation assay, H1975; details: for Inhibitory efficacy: H1975 cells
[2] = H460, 12uM, single experiments (20200711, 20200810, 20200812)

IC50 (wild-type EGFR; IC50 (μM) EGFR, ELISA, 3 μmol/L ATP): 1.76 µM
inhibition at 100 fM (wild-type EGFR; concentration 0.0001 nM (reference for normalisation), one value per replicate column): 0%
inhibition at 30 pM (wild-type EGFR; concentration 0.03 nM, one value per replicate column): 8.63%
Inhibition (wild-type EGFR; concentration 0.03 nM, one value per replicate column, 3e-05 µM): 6.151
inhibition at 0.0003 µM (wild-type EGFR; concentration 0.3 nM, one value per replicate column): 9.04%
Inhibition (wild-type EGFR; concentration 0.3 nM, one value per replicate column, 0.0003 µM): 14.0873
inhibition at 0.003 µM (wild-type EGFR; concentration 3 nM, one value per replicate column): 9.24%
Inhibition (wild-type EGFR; concentration 3 nM, one value per replicate column, 0.003 µM): 16.0714
inhibition at 0.03 µM (wild-type EGFR; concentration 30 nM, one value per replicate column): 16.1%
Inhibition (wild-type EGFR; concentration 30 nM, one value per replicate column, 0.03 µM): 18.4524
inhibition at 0.3 µM (wild-type EGFR; concentration 300 nM, one value per replicate column): 20.3%
Inhibition (wild-type EGFR; concentration 300 nM, one value per replicate column, 0.3 µM): 32.1429
inhibition at 3 µM (wild-type EGFR; concentration 3000 nM, one value per replicate column): 50.8%
Inhibition (wild-type EGFR; concentration 3000 nM, one value per replicate column, 3 µM): 50.5952
inhibition at 30 µM (wild-type EGFR; concentration 30000 nM, one value per replicate column): 85.5%
Inhibition (wild-type EGFR; concentration 30000 nM, one value per replicate column, 30 µM): 85.9127
A450 (wild-type EGFR; concentration 0.0001 nM): 0.655 and 0.663
A450 (wild-type EGFR; concentration 0.03 nM): 0.612 and 0.632
A450 (wild-type EGFR; concentration 0.3 nM): 0.61 and 0.592
A450 (wild-type EGFR; concentration 3 nM): 0.609 and 0.582
A450 (wild-type EGFR; concentration 30 nM): 0.575 and 0.57
A450 (wild-type EGFR; concentration 300 nM): 0.554 and 0.501
A450 (wild-type EGFR; concentration 3000 nM): 0.402 and 0.408
A450 (wild-type EGFR; concentration 30000 nM): 0.229 and 0.23
IC50 (H1975 cells; Homo sapiens, NCI-H1975, 48 h, read-out: IC50 (μM) H1975, CCK-8, 48 h, average ± SD of three independent experiments): < 10 µM
IC50 (H1975 cells; read-out: IC50 (μM) H1975, CCK-8, 48 h, average ± SD of three independent experiments): 7.25 ± 0.45 µM
Compound: COCCOc1cc2ncnc(Nc3cccc(-c4cn(-c5ccc(C)cc5)nn4)c3)c2cc1OCCOC [e12, [6,7-Bis-(2-methoxy-ethoxy)-quinazolin-4-yl]-[3-(1-p-tolyl-1H-[1,2,3]triazol-4-yl)-phenyl]-amine]
G0/G1 (H460 cells; [2]): 47.32% and 46.51% and 62.09%
S (H460 cells; [2]): 32.63% and 19.41% and 25.2%
percentage of cells in the G0/G1 phase (H460 cells; H460, various concentrations, 12 h): induced higher percentages
p-EGFR/EGFR ([1]; PC-9, 0.1 uM): 1.065
p-EGFR/EGFR relative to DMSO ([1]; PC-9, 0.1 uM): 0.9518
p-EGFR/EGFR ([1]; PC-9, 1 uM): 0.9522
p-EGFR/EGFR relative to DMSO ([1]; PC-9, 1 uM): 0.8509
p-EGFR/EGFR ([1]; PC-9, 10 uM): 0.4177
p-EGFR/EGFR relative to DMSO ([1]; PC-9, 10 uM): 0.3732
phosphorylation of EGFR (western blot) ([1]; PC-9, especially at 10 μM): suppressed
Inhibitory efficacy (H1975 cells; 1uM, given as fraction, Repeat 1-3): 0.1624 and 0.1374
Inhibitory efficacy (H1975 cells; 2uM, given as fraction, Repeat 1-3): 0.2034 and 0.2177
Inhibitory efficacy (H1975 cells; 4uM, given as fraction, Repeat 1-3): 0.2052 and 0.2481
Inhibitory efficacy (H1975 cells; 8uM, given as fraction, Repeat 1-3): 0.4158 and 0.4836
Inhibitory efficacy (H1975 cells; 16uM, given as fraction, Repeat 1-3): 0.8709 and 0.8763
inhibition at 1 µM (H1975 cells; Homo sapiens, NCI-H1975, read-out: Inhibitory efficacy, H1975 cells, 1uM, given as fraction, Repeat 1-3): 18.4%
inhibition at 2 µM (H1975 cells; Homo sapiens, NCI-H1975, read-out: Inhibitory efficacy, H1975 cells, 2uM, given as fraction, Repeat 1-3): 28.9%
inhibition at 4 µM (H1975 cells; Homo sapiens, NCI-H1975, read-out: Inhibitory efficacy, H1975 cells, 4uM, given as fraction, Repeat 1-3): 23.2%
inhibition at 8 µM (H1975 cells; Homo sapiens, NCI-H1975, read-out: Inhibitory efficacy, H1975 cells, 8uM, given as fraction, Repeat 1-3): 40.7%
inhibition at 16 µM (H1975 cells; Homo sapiens, NCI-H1975, read-out: Inhibitory efficacy, H1975 cells, 16uM, given as fraction, Repeat 1-3): 87.6%
